In US9382254B2, “Compounds and pharmaceutical compositions thereof for the treatment of cystic fibrosis” (Galapagos NV, priority 2013, dated 2016) one finds EC50 data, which are given here for 25 molecules.

Molecules are shown by their SMILES.

Format in all cases: cell-based
Assay [1] deals with T1, CFTR ΔF508 mutant (Homo sapiens, UniProt P13569, DEL508-508).
T1 construct: expressed in transfected cells; host or cells: CFBE41o- (adenoviral transduction)
Put plainly: YFP-halide influx assay for the CFTR-ΔF508 mutation, gluconate buffer. The settings on record: CFBE41o- cells, forskolin 10.67 μM. The procedure, abridged: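 CFBE41o- cells adenovirally transduced with CFTR ΔF508 and YFP H148Q/I152L, then held 24 h at 27 °C or treated with CFTR modulator 24 h at 37 °C. I− quenching recorded for 7 s after injection; activity as 1-F/F0, EC50 from concentration plot.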

In assay [2] the target is T1, CFTR ΔF508 mutant. Put plainly: YFP-halide influx assay for the CFTR-ΔF508 mutation, PBS buffer (96 well). The note with it: CFBE41o- cells, forskolin 10.67 μM. The method in brief: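 CFBE41o- cells were adenovirally transduced with CFTR ΔF508 and YFP H148Q/I152L, then incubated 24 h at 27 °C or with a CFTR modulator at 37 °C. I⁻-induced fluorescence quenching was recorded over 7 s after injection; response expressed as 1−F/F0, with EC50 from concentration plots.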

The target in another assay is T2, CFTR G551D mutant (Homo sapiens, UniProt P13569, G551D).
T2 construct: expressed in transfected cells; host or cells: HEK293 (reverse transfection with plasmid)
T2 sequence (P13569 whole entry G551D): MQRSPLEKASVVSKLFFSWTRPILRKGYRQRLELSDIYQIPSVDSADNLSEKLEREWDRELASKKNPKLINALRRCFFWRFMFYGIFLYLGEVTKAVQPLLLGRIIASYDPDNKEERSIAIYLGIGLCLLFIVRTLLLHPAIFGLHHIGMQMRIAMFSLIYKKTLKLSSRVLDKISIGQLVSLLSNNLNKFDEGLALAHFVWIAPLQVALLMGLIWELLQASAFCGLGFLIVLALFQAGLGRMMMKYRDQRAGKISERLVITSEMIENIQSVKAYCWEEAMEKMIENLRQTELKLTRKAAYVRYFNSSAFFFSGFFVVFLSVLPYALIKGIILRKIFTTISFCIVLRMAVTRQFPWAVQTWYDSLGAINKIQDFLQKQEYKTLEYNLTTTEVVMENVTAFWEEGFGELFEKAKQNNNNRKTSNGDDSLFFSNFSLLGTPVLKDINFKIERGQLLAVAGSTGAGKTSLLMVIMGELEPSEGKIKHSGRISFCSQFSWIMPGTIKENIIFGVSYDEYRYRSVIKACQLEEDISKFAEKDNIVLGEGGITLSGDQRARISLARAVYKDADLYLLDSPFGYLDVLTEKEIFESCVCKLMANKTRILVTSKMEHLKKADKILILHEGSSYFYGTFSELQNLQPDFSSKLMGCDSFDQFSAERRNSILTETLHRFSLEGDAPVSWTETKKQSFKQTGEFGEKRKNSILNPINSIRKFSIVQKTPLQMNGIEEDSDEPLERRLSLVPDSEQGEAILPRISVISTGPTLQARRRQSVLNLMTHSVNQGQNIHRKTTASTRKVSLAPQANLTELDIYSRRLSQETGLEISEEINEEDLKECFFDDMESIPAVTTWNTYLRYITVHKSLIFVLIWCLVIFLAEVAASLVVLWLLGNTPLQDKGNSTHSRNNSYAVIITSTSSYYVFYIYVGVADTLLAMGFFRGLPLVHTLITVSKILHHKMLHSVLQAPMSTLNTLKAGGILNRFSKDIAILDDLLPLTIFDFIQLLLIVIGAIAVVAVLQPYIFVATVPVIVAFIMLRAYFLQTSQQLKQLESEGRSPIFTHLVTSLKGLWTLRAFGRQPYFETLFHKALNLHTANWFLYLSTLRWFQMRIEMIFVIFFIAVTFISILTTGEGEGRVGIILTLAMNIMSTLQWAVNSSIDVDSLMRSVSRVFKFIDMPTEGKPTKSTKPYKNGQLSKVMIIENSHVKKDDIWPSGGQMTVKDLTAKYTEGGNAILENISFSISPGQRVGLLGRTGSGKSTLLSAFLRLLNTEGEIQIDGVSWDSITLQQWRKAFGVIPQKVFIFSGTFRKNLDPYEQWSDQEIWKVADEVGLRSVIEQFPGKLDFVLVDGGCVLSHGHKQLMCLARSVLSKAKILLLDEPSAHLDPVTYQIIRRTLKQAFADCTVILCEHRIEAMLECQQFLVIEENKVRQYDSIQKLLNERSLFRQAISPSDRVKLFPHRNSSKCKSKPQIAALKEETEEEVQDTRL
Put plainly: YFP-halide influx assay for the CFTR-G551D mutation. The settings on record: HEK293 cells, forskolin 10.67 μM. The procedure, abridged: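 HEK293 cells reverse-transfected with CFTR G551D and YFP H148Q/I152L/F47L halide sensor, expressed 24 h at 37 °C. Iodide-induced fluorescence quench recorded 7 s after I− injection; response = 1−F/F0, with EC50 from plot against compound concentration.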

Assay [3] deals with T1, CFTR ΔF508 mutant. Put plainly: YFP-halide influx assay for the CFTR-ΔF508 mutation (384 well, FDSS/μCell). The settings on record: CFBE41o- cells, CFTR-ΔF508, 1×D-PBS, fluorescence after 36 seconds. The procedure, abridged:
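Potentiator read-out as 1−F/F0, F taken 36 s after iodide addition, EC50 fitted against compound concentration. Cells: CFBE41o- expressing ΔF508 CFTR plus halide-sensitive YFP via adenovirus, rescued by 27 °C for 24 h or 24 h modulator at 37 °C.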

T1 sequence (P13569 with tags, fused parts or gaps DEL508-508): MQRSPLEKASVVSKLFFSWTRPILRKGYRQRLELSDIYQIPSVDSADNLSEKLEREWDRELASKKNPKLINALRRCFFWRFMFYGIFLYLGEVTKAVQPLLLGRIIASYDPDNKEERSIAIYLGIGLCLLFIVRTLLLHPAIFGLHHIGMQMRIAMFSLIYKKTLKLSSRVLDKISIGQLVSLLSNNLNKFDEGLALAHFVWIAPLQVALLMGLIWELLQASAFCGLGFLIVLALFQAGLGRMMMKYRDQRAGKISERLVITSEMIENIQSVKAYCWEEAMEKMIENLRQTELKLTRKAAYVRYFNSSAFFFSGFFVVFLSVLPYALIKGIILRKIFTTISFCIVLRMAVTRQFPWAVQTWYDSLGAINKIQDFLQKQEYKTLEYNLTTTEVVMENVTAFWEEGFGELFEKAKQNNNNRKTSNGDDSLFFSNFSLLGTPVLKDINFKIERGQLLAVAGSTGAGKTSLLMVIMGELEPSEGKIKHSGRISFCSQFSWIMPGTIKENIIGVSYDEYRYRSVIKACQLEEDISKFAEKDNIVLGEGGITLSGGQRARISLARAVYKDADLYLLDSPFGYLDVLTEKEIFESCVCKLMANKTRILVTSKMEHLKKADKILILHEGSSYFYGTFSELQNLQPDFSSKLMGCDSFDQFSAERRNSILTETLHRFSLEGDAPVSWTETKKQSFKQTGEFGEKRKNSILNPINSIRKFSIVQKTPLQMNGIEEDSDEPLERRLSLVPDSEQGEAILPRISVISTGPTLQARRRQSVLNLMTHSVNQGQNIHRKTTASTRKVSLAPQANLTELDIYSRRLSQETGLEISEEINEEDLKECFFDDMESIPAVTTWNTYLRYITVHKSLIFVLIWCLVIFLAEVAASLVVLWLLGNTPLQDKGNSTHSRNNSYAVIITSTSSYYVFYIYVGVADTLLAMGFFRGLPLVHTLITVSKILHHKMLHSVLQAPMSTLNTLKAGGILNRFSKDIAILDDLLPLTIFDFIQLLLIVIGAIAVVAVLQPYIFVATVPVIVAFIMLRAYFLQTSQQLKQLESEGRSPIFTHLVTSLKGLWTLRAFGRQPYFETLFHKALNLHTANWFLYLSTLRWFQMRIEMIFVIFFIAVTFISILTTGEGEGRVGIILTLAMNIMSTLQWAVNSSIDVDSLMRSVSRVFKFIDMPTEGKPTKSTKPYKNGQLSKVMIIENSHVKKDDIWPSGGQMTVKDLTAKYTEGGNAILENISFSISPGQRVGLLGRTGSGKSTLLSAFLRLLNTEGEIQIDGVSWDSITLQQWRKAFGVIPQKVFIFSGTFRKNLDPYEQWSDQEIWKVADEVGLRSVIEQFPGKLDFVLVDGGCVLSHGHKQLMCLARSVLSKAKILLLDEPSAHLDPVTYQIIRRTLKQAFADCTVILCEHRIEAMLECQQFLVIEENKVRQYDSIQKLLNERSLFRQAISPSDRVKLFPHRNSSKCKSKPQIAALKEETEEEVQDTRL

Turning to `CN(CC1CC1)S(=O)(=O)c1cc(C(N)=O)c(NC(=O)c2ccccc2F)s1` [Compound 218, 5-(N-(cyclopropylmethyl)-N-methylsulfamoyl)-2-(2-fluorobenzamido) thiophene-3-carboxamide], the EC50 on CFTR ΔF508 mutant [1] is 196 nM; at CFTR ΔF508 mutant [2], 72.7 nM; at CFTR G551D mutant, 410 nM.
With `NC(=O)c1cc(S(=O)(=O)c2ccc(F)cc2)sc1NC(=O)C1(O)CC1` [Compound 224, 5-(4-fluorophenylsulfonyl)-2-(1-hydroxycyclopropanecarboxamido) thiophene-3-carboxamide], the concentration giving a half-maximal response (EC50) is 103 nM on CFTR ΔF508 mutant [1], 35 nM at CFTR ΔF508 mutant [3], 54.1 nM at CFTR ΔF508 mutant [2] and 511 nM at CFTR G551D mutant.
For the molecule `NC(=O)c1cc(S(=O)(=O)N2CCC(F)(F)CC2)sc1NC(=O)C1(O)CCC1` [Compound 213, 5-(4,4-difluoropiperidin-1-ylsulfonyl)-2-(1-hydroxycyclobutanecarboxamido) thiophene-3-carboxamide], the EC50 on CFTR ΔF508 mutant [1] was 87.3 nM; at CFTR ΔF508 mutant [3], 52.8 nM; at CFTR ΔF508 mutant [2], 118 nM; on CFTR G551D mutant, 541 nM.
`CC(C)(CO)C(=O)Nc1sc(S(=O)(=O)N2CCC(F)(F)CC2)cc1C(N)=O` [Compound 217, 5-(4,4-difluoropiperidin-1-ylsulfonyl)-2-(3-hydroxy-2,2-dimethylpropanamido) thiophene-3-carboxamide]: the concentration for a half-maximal effect (EC50) on CFTR ΔF508 mutant [1] was found to be 195 nM; at CFTR ΔF508 mutant [2], 164 nM.
As to `CC(C)(O)C(=O)Nc1sc(S(C)(=O)=O)cc1C(N)=O` [Compound 219, 2-(2-hydroxy-2-methylpropanamido)-5-(methylsulfonyl) thiophene-3-carboxamide], the 50% effective concentration (EC50) on CFTR ΔF508 mutant [1] and at CFTR ΔF508 mutant [2] was greater than 1000 nM each time.
In the case of `CC(C)S(=O)(=O)c1cc(C(N)=O)c(NC(=O)C(C)(C)O)s1` [Compound 220, 2-(2-hydroxy-2-methylpropanamido)-5-(isopropylsulfonyl) thiophene-3-carboxamide], the EC50 at CFTR ΔF508 mutant [1] was greater than 1000 nM; on CFTR ΔF508 mutant [2] it was 2310 nM.
Take `CC(C)Oc1cc(F)ccc1S(=O)(=O)c1cc(C(N)=O)c(NC(=O)C(C)(C)O)s1` [Compound 281, 5-(4-fluoro-2-isopropoxyphenylsulfonyl)-2-(2-hydroxy-2-methylpropanamido) thiophene-3-carboxamide]: the half-maximal effective concentration (EC50) was found to be 136 nM at CFTR ΔF508 mutant [3], 41.1 nM at CFTR ΔF508 mutant [2] and 1540 nM at CFTR G551D mutant.
For `COc1ccc(S(=O)(=O)c2cc(C(N)=O)c(NC(=O)C3(O)CC3)s2)cc1` [Compound 245, 2-(1-hydroxycyclopropanecarboxamido)-5-(4-methoxyphenylsulfonyl) thiophene-3-carboxamide], in that order: 113 nM, 60.3 nM and 621 nM.
Regarding `CC(C)(O)C(=O)Nc1sc(S(=O)(=O)c2cccc(OC(F)(F)F)c2)cc1C(N)=O` [Compound 269, 2-(2-hydroxy-2-methylpropanamido)-5-(3-(trifluoromethoxy)phenylsulfonyl) thiophene-3-carboxamide], the figures for the concentration for a half-maximal effect (EC50) on CFTR ΔF508 mutant [3], on CFTR ΔF508 mutant [2] and at CFTR G551D mutant were 10.1 nM, 33 nM and 935 nM, respectively.
For `NC(=O)c1cc(S(=O)(=O)N2CCOCC2)sc1NC(=O)c1c(O)cc(F)cc1F` [Compound 212, 2-(2,4-difluoro-6-hydroxybenzamido)-5-(morpholinosulfonyl) thiophene-3-carboxamide], the EC50 worked out at 184 nM on CFTR ΔF508 mutant [1] and 70.3 nM at CFTR ΔF508 mutant [2].
Consider `NC(=O)c1cc(S(=O)(=O)c2ccccc2C(F)(F)F)sc1NC(=O)C1(O)CC1` [Compound 257, 2-(1-hydroxycyclopropanecarboxamido)-5-(2-(trifluoromethyl)phenylsulfonyl) thiophene-3-carboxamide], for which the EC50 on CFTR ΔF508 mutant [3] was 26.1 nM; at CFTR ΔF508 mutant [2], 16.3 nM; on CFTR G551D mutant it was 333 nM.
Turning to `CC(O)C(=O)Nc1sc(S(=O)(=O)c2ccccc2OC(F)(F)F)cc1C(N)=O` (centres unmarked) [Compound 311, 2-(2-hydroxypropanamido)-5-(2-(trifluoromethoxy)phenylsulfonyl) thiophene-3-carboxamide], the figures for the EC50 at CFTR ΔF508 mutant [3], at CFTR ΔF508 mutant [2] and on CFTR G551D mutant were 3.5 nM, 15.2 nM and 607 nM, respectively.
In the case of `Cc1cccc(C(=O)Nc2sc(S(=O)(=O)N3CCOCC3)cc2C(N)=O)c1O` [Compound 216, 2-(2-hydroxy-3-methylbenzamido)-5-(morpholinosulfonyl) thiophene-3-carboxamide], the results for the EC50 at CFTR ΔF508 mutant [1] and on CFTR ΔF508 mutant [2] were 709 nM and 216 nM, respectively.
With `CC(C)(O)C(=O)Nc1sc(S(=O)(=O)c2ccccc2C(F)(F)F)cc1C(N)=O` [Compound 289, 2-(2-hydroxy-2-methylpropanamido)-5-(2-(trifluoromethyl)phenylsulfonyl) thiophene-3-carboxamide], the concentration giving a half-maximal response (EC50) on CFTR ΔF508 mutant [3] is 28.4 nM; on CFTR ΔF508 mutant [2], 31.1 nM; at CFTR G551D mutant, 191 nM.
Consider `CC(C)c1ccccc1S(=O)(=O)c1cc(C(N)=O)c(NC(=O)C2(O)CC2)s1` [Compound 228, 2-(1-hydroxycyclopropanecarboxamido)-5-(2-isopropylphenylsulfonyl) thiophene-3-carboxamide], for which the values for the EC50 at CFTR ΔF508 mutant [3], on CFTR ΔF508 mutant [2] and on CFTR G551D mutant were 29 nM, 20.5 nM and 93 nM, respectively.
On to `CC(C)c1cc(C(=O)Nc2sc(S(=O)(=O)N3CCC(F)(F)CC3)cc2C(N)=O)c(O)c(C(C)C)c1` [Compound 215, 5-(4,4-difluoropiperidin-1-ylsulfonyl)-2-(2-hydroxy-3,5-diisopropylbenzamido) thiophene-3-carboxamide], for which the figures for the EC50 on CFTR ΔF508 mutant [1] and on CFTR ΔF508 mutant [2] were 292 nM and 862 nM, respectively.
Take `CN(c1ccc(F)cc1)S(=O)(=O)c1cc(C(N)=O)c(NC(=O)C(C)(C)O)s1` [Compound 304, 5-(N-(4-fluorophenyl)-N-methylsulfamoyl)-2-(2-hydroxy-2-methylpropanamido) thiophene-3-carboxamide]: the results for the EC50 on CFTR ΔF508 mutant [3], on CFTR ΔF508 mutant [2] and at CFTR G551D mutant were 109 nM, 78.5 nM and 3330 nM, respectively.
For `CC(C)(CO)C(=O)Nc1sc(S(=O)(=O)c2ccc(F)cc2)cc1C(N)=O` [Compound 253, 5-(4-fluorophenylsulfonyl)-2-(3-hydroxy-2,2-dimethylpropanamido) thiophene-3-carboxamide], in that order: 50.8 nM, 73 nM and 3330 nM.
On to `NC(=O)c1cc(S(=O)(=O)N2CCC(F)(F)CC2)sc1NC(=O)c1c(O)cc(F)cc1F` [Compound 214, 2-(2,4-difluoro-6-hydroxybenzamido)-5-(4,4-difluoropiperidin-1-ylsulfonyl) thiophene-3-carboxamide], for which the concentration giving a half-maximal response (EC50) on CFTR ΔF508 mutant [1] was found to be 117 nM; at CFTR ΔF508 mutant [3], 25.8 nM; at CFTR ΔF508 mutant [2], 37.2 nM.
Turning to `COc1ccc(S(=O)(=O)c2cc(C(N)=O)c(NC(=O)C(C)(C)O)s2)c(OC(F)F)c1` [Compound 284, 5-(2-(difluoromethoxy)-4-methoxyphenylsulfonyl)-2-(2-hydroxy-2-methylpropanamido) thiophene-3-carboxamide], the EC50 on CFTR ΔF508 mutant [3] amounted to 85.2 nM; at CFTR ΔF508 mutant [2], 51 nM; on CFTR G551D mutant it was 793 nM.
In the case of `CN(Cc1ccc(F)cc1)S(=O)(=O)c1cc(C(N)=O)c(NC(=O)C2(O)CC2)s1` [Compound 231, 5-(N-(4-fluorobenzyl)-N-methylsulfamoyl)-2-(1-hydroxycyclopropanecarboxamido) thiophene-3-carboxamide], the values for the EC50 at CFTR ΔF508 mutant [3], at CFTR ΔF508 mutant [2] and at CFTR G551D mutant were 31.8 nM, 26 nM and 676 nM, respectively.
Take `CC(C)Oc1cccc(S(=O)(=O)c2cc(C(N)=O)c(NC(=O)C(C)(C)O)s2)c1` [Compound 265, 2-(2-hydroxy-2-methylpropanamido)-5-(3-isopropoxyphenylsulfonyl) thiophene-3-carboxamide]: the EC50 on CFTR ΔF508 mutant [3] is 91.7 nM; on CFTR ΔF508 mutant [2] it was 42.2 nM; at CFTR G551D mutant, 2000 nM.
As to `COc1ccc(F)cc1S(=O)(=O)c1cc(C(N)=O)c(NC(=O)C(C)(C)O)s1` [Compound 295, 5-(5-fluoro-2-methoxyphenylsulfonyl)-2-(2-hydroxy-2-methylpropanamido) thiophene-3-carboxamide], the concentration giving a half-maximal response (EC50) at CFTR ΔF508 mutant [3] is 35.6 nM; on CFTR ΔF508 mutant [2] it was 95.2 nM; on CFTR G551D mutant, 1010 nM.
As to `Cc1cccc(C)c1S(=O)(=O)c1cc(C(N)=O)c(NC(=O)C2(O)CC2)s1` [Compound 251, 5-(2,6-dimethylphenylsulfonyl)-2-(1-hydroxycyclopropanecarboxamido) thiophene-3-carboxamide], the EC50 at CFTR ΔF508 mutant [3] amounted to 47.2 nM; at CFTR ΔF508 mutant [2], 20.8 nM; on CFTR G551D mutant, 1250 nM.
As to `NC(=O)c1cc(S(=O)(=O)c2ccc(F)cc2)sc1NC(=O)C1CCCCC1O` (centres unmarked) [Compound 280, 5-(4-fluorophenylsulfonyl)-2-(2-hydroxycyclohexanecarboxamido) thiophene-3-carboxamide], the results for the EC50 at CFTR ΔF508 mutant [3], on CFTR ΔF508 mutant [2] and on CFTR G551D mutant were 117 nM, 28 nM and 1660 nM, respectively.

By EC50 is commonly meant the concentration needed to bring the measured effect to its halfway point.
